Tested on: HCV 1b-377-neo replicon cells
Assay: HCV replicon assay, HCV 1b-377-neo replicon cells (1b FRET)
Assay type: cell-based, Hepatitis C virus genotype 1b
Conditions: HCV 1b-377-neo replicon cells, HCV 1b genotype; for EC50: Hepatitis C virus, read-out: EC50 range against HCV 1b (Table 2, Range)
How it was run: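 Compounds were tested in genotype 1b subgenomic replicon cells carrying a neomycin marker, alongside a matched replicon line with an NS5A Y2065H substitution that confers resistance to a reference NS5A inhibitor.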

COC(=O)N[C@@H](C)C(=O)N1CCC[C@H]1c1ncc(-c2ccc(-c3ccc(-c4[nH]c([C@@H]5CCCN5C(=O)[C@H](C)NC(=O)OC)nc4C(F)(F)F)cc3)cc2)[nH]1 [Example J38, methyl ((1S)-2-((2S)-2-(5-(4′-(2-((2S)-1-(N-(methoxycarbonyl)-L-alanyl)-2-pyrrolidinyl)-4-(trifluoromethyl)-1H-imidazol-5-yl)-4-biphenylyl)-1H-imidazol-2-yl)-1-pyrrolidinyl)-1-methyl-2-oxoethyl)carbamate] showed an EC50 of 0.001 to 0.999 nM.
For COC(=O)N[C@H](C(=O)N1CCC[C@H]1c1ncc(-c2ccc(-c3ccc(-c4[nH]c([C@@H]5CCCN5C(=O)[C@@H](NC(=O)OC)C(C)C)nc4C(F)(F)F)cc3)cc2)[nH]1)C(C)C [Example J39, methyl ((1S)-1-(((2S)-2-(5-(4′-(2-((2S)-1-((2S)-2-((methoxycarbonyl)amino)-3-methylbutanoyl)-2-pyrrolidinyl)-1H-imidazol-5-yl)-4-biphenylyl)-4-(trifluoromethyl)-1H-imidazol-2-yl)-1-pyrrolidinyl)carbonyl)-2-methylpropyl)carbamate], the EC50 was 0.001 to 0.999 nM.
CCN(CC)[C@@H](C(=O)N1CCC[C@H]1c1ncc(-c2ccc(-c3ccc(-c4[nH]c([C@@H]5CCCN5C(=O)[C@@H](c5ccccc5)N(CC)CC)nc4C(F)(F)F)cc3)cc2)[nH]1)c1ccccc1 [Example J40] showed an EC50 of 0.001 to 0.999 nM.
COC(=O)N[C@H](C(=O)N1CCC[C@H]1c1ncc(-c2ccc(-c3ccc(-c4[nH]c([C@@H]5CCCN5C(=O)[C@@H](NC(=O)OC)C5CC5)nc4C(F)(F)F)cc3)cc2)[nH]1)C1CC1 [Example J41, methyl ((1S)-1-cyclopropyl-2-((2S)-2-(5-(4′-(2-((2S)-1-((2S)-2-cyclopropyl-2-((methoxycarbonyl)amino)acetyl)-2-pyrrolidinyl)-1H-imidazol-5-yl)-4-biphenylyl)-4-(trifluoromethyl)-1H-imidazol-2-yl)-1-pyrrolidinyl)-2-oxoethyl)carbamate] gave an EC50 of 0.001 to 0.999 nM.
COC(=O)N[C@H](C(=O)N1CCC[C@H]1c1ncc(-c2ccc(-c3ccc(-c4[nH]c([C@@H]5CCCN5C(=O)[C@@H](NC(=O)OC)[C@@H](C)OC)nc4C(F)(F)F)cc3)cc2)[nH]1)[C@@H](C)OC [Example J42, methyl ((1S,2R)-2-methoxy-1-(((2S)-2-(5-(4′-(2-((2S)-1-(N-(methoxycarbonyl)-O-methyl-L-threonyl)-2-pyrrolidinyl)-4-(trifluoromethyl)-1H-imidazol-5-yl)-4-biphenylyl)-1H-imidazol-2-yl)-1-pyrrolidinyl)carbonyl)propyl)carbamate] gave an EC50 of 0.001 to 0.999 nM.
COC(=O)N[C@@H](C)C(=O)N(C)[C@@H](C)c1ncc(-c2ccc(-c3ccc(-c4[nH]c([C@@H]5CCCN5C(=O)[C@H](C)NC(=O)OC)nc4C(F)(F)F)cc3)cc2)[nH]1 [Example J42.a, methyl ((1S)-2-((2S)-2-(5-(4′-(2-((1S)-1-((N-(methoxycarbonyl)-L-alanyl)(methyl)amino)ethyl)-1H-imidazol-5-yl)-4-biphenylyl)-4-(trifluoromethyl)-1H-imidazol-2-yl)-1-pyrrolidinyl)-1-methyl-2-oxoethyl)carbamate] was tested, and the EC50 was 0.001 to 0.999 nM.
With CCN(CC)[C@@H](C(=O)N1CCC[C@H]1c1ncc(-c2ccc(-c3ccc(-c4[nH]c([C@@H]5CCCN5C(=O)[C@H](C)NC(=O)OC)nc4C(F)(F)F)cc3)cc2)[nH]1)c1ccccc1 [Example J45, methyl ((1S)-2-((2S)-2-(5-(4′-(2-((2S)-1-((2R)-2-(diethylamino)-2-phenylacetyl)-2-pyrrolidinyl)-1H-imidazol-5-yl)-4-biphenylyl)-4-(trifluoromethyl)-1H-imidazol-2-yl)-1-pyrrolidinyl)-1-methyl-2-oxoethyl)carbamate] the EC50 was 0.001 to 0.999 nM.
COC(=O)N[C@@H](C(=O)N1CCC[C@H]1c1ncc(-c2cnc(-c3ccc(-c4[nH]c([C@@H]5CCCN5C(=O)[C@H](NC(=O)OC)c5ccccc5)nc4C(F)(F)F)cc3)nc2)[nH]1)c1ccccc1 [Example J46, methyl ((1R)-2-((2S)-2-(5-(4-(5-(2-((2S)-1-((2R)-2-((methoxycarbonyl)amino)-2-phenylacetyl)-2-pyrrolidinyl)-1H-imidazol-5-yl)-2-pyrimidinyl)phenyl)-4-(trifluoromethyl)-1H-imidazol-2-yl)-1-pyrrolidinyl)-2-oxo-1-phenylethyl)carbamate] showed an EC50 of 0.001 to 0.999 nM.
For CCN(CC)[C@@H](C(=O)N1CCC[C@H]1c1ncc(-c2cnc(-c3ccc(-c4[nH]c([C@@H]5CCCN5C(=O)[C@@H](c5ccccc5)N(CC)CC)nc4C(F)(F)F)cc3)nc2)[nH]1)c1ccccc1 [Example J47, (1R)-2-((2S)-2-(5-(4-(5-(2-((2S)-1-((2R)-2-(diethylamino)-2-phenylacetyl)-2-pyrrolidinyl)-1H-imidazol-5-yl)-2-pyrimidinyl)phenyl)-4-(trifluoromethyl)-1H-imidazol-2-yl)-1-pyrrolidinyl)-N,N-diethyl-2-oxo-1-phenylethanamine], the EC50 was 0.001 to 0.999 nM.
Molecule COC(=O)N[C@H](C(=O)N1CCC[C@H]1c1ncc(-c2cnc(-c3ccc(-c4[nH]c([C@@H]5CCCN5C(=O)[C@@H](NC(=O)OC)C(C)C)nc4C(F)(F)F)cc3)nc2)[nH]1)C(C)C [Example J48, methyl ((1S)-1-(((2S)-2-(5-(2-(4-(2-((2S)-1-((2S)-2-((methoxycarbonyl)amino)-3-methylbutanoyl)-2-pyrrolidinyl)-4-(trifluoromethyl)-1H-imidazol-5-yl)phenyl)-5-pyrimidinyl)-1H-imidazol-2-yl)-1-pyrrolidinyl)carbonyl)-2-methylpropyl)carbamate] has an EC50 of 0.001 to 0.999 nM.
COC(=O)N[C@H](C(=O)N1CCC[C@H]1c1ncc(-c2cnc(-c3ccc(-c4[nH]c([C@@H]5CCCN5C(=O)[C@@H](NC(=O)OC)C5CC5)nc4C(F)(F)F)cc3)nc2)[nH]1)C1CC1 [Example J49, methyl ((1S)-1-cyclopropyl-2-((2S)-2-(5-(4-(5-(2-((2S)-1-((2S)-2-cyclopropyl-2-((methoxycarbonyl)amino)acetyl)-2-pyrrolidinyl)-1H-imidazol-5-yl)-2-pyrimidinyl)phenyl)-4-(trifluoromethyl)-1H-imidazol-2-yl)-l-pyrrolidinyl)-2-oxoethyl)carbamate] gave an EC50 of 0.001 to 0.999 nM.
Molecule COC(=O)N[C@@H](C)C(=O)N1CCC[C@H]1c1ncc(-c2cnc(-c3ccc(-c4[nH]c([C@@H]5CCCN5C(=O)[C@H](C)NC(=O)OC)nc4C(F)(F)F)cc3)nc2)[nH]1 [Example J50, methyl ((1S)-2-((2S)-2-(5-(4-(5-(2-((2S)-1-(N-(methoxycarbonyl)-L-alanyl)-2-pyrrolidinyl)-1H-imidazol-5-yl)-2-pyrimidinyl)phenyl)-4-(trifluoromethyl)-1H-imidazol-2-yl)-1-pyrrolidinyl)-1-methyl-2-oxoethyl)carbamate] has an EC50 of 0.001 to 0.999 nM.
O=C(C(c1ccccc1)N1C2CCC1CC2)N1CCC[C@H]1c1ncc(-c2ccc(-c3ccc(-c4cnc([C@@H]5CCCN5C(=O)C(c5ccccc5)N5C6CCC5CC6)[nH]4)cc3)cc2)[nH]1 (stereo partly drawn) [Example M1, 7,7′-(4,4′-biphenyldiylbis(1H-imidazole-5,2-diyl(2S)-2,1-pyrrolidinediyl(2-oxo-1-phenyl-2,1-ethanediyl)))bis(7-azabicyclo[2.2.1]heptane)] was tested, and the “EC50 range against HCV 1b (Table 2, Range)” value was “>A”.

Reference: patent US8574563B2 (Bristol-Myers Squibb Company, priority 2006, dated 2013)
